Test results published in patent US11267826B2, “Penicillin-binding protein inhibitors” (priority 2017, dated 2022).

How the values were obtained:
[1] = system: E. coli DH5a with pLBII plasmid with no β-lactamase gene; test: Broth microdilution MIC, engineered E. coli control strain (pLBII plasmid, no β-lactamase gene); assay type: cell-based; conditions: Escherichia coli, read-out: MIC, β-lactamase None
Experimental: (§1) To determine the ability of test compounds to potentiate the inhibition of the growth of bacterial strains, classic cell based broth microdilution MIC assays were employed. MIC assays are performed according to CLSI methods except where otherwise noted (CLSI, 2011 and CLSI, 2009). The reference strain S. aureus ATCC 29213 and the hyper-permeable E. coli 901C were used to determine the ability of the PBP compounds to inhibit bacterial growth. Briefly, cryo-preserved bacterial cultures of clinical strains are streaked for isolation on appropriate agar medium, in this case Mueller Hinton II agar. Following incubation to allow formation of colonies these plates are sealed with parafilm and stored refrigerated for up to two weeks. For preparation of assay inocula and to ensure low variability, at least 5 colonies are picked from the agar plates with an inoculating loop and aseptically transferred to a culture tube containing 3 mL of Mueller-Hinton Broth (supplemented with divalent cations to required levels based on Manufacturers' certification). The broth culture is grown for 3-5 hours at 37° C. with shaking at 200 rpm. Meanwhile, 2-fold serial dilutions of test compounds are conducted in a 96 well plate with a final volume of 75 μL per well at 2-fold the final desired concentration. After the dilution plates are set up the growing cultures are then diluted in a cuvette containing MH II broth and the optical density is measured at 600 nm. Inocula are diluted such that 75 μL of this culture in Mueller-Hinton Broth results in a starting bacterial concentration of 5×10^5 CFU/mL when added to the dilution plates. The plates are incubated 16-20 hours at 37° C. The MIC is read visually as the lowest concentration well with no bacterial growth.
(§2) To determine if test compounds were affected by various known β-lactamases, the inhibition of the growth of engineered strains of Escherichia coli harboring select single β-lactamases were tested. […]

[2] = system: engineered strains of Escherichia coli harboring select single β-lactamases; test: MIC across the panel of engineered E. coli strains harboring select single β-lactamases; assay type: cell-based; conditions: strains expressing β-lactamases compared with control strain, result in words
Experimental: To determine if test compounds were affected by various known β-lactamases, the inhibition of the growth of engineered strains of Escherichia coli harboring select single β-lactamases were tested. These strains were constructed by cloning the gene encoding the particular β-lactamase into the NdeI and BamHI restriction endonuclease sites of plasmid pLBII, placing the gene(s) under the control of the Lac promoter.

S. aureus ATCC 29213 = test: Broth microdilution MIC assay, S. aureus; assay type: cell-based; conditions: Staphylococcus aureus, ATCC29213; broth microdilution, 16-20 hours at 37° C.; read-out: S. aureus 29213 MIC
In short: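 Growth inhibition is measured by CLSI broth microdilution. Log-phase bacteria (5×10^5 CFU/mL starting density) are incubated with 2-fold compound dilutions in cation-supplemented MH broth for 16-20 hours at 37° C, and the MIC is scored visually.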

[3] = system: E. coli DH5a harboring OXA-48; test: Broth microdilution MIC, engineered E. coli expressing OXA-48; assay type: cell-based; conditions: Escherichia coli, read-out: MIC, β-lactamase OXA
Experimental: as §1, §2

[4] = system: E. coli DH5a harboring CTX-M15; test: Broth microdilution MIC, engineered E. coli expressing CTX-M15; assay type: cell-based; conditions: Escherichia coli, read-out: MIC, β-lactamase CTXM
Experimental: as §1, §2

E. coli K12 PBP1a/b = test: Bocillin FL competition binding assay, PBP1a/1b combined; parameters: species or system Escherichia coli K12; conditions: 15 min pre-incubation, PBP 1a/1b combined
In short: (§3)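 E. coli K12 membrane extracts (100 µg protein) pre-incubated 15 min with compound (0.005–2,480 µg/mL) in pH 7 phosphate/350 mM NaCl, then labelled with Bocillin FL 30 min at 35°C; SDS-PAGE fluorescence (ex 450/em 520 nm), μg/mL reported. PBP1a/1b unresolved, reported combined.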

[5] = system: E. coli DH5a harboring SHV-5; test: Broth microdilution MIC, engineered E. coli expressing SHV-5; assay type: cell-based; conditions: Escherichia coli, read-out: MIC, β-lactamase SHV
Experimental: as §1, §2

E. coli PBP2 = target: T1, E. coli PBP2 (Escherichia coli, UniProt P0AD65); test: Bocillin FL competition binding assay, PBP2; parameters: species or system Escherichia coli K12; conditions: 15 min pre-incubation
T1 construct: 100 μg's of total membrane protein extracts containing PBPs; endogenous in cells; host or cells: Escherichia coli K12, membrane protein fraction
T1 sequence (P0AD65 whole entry): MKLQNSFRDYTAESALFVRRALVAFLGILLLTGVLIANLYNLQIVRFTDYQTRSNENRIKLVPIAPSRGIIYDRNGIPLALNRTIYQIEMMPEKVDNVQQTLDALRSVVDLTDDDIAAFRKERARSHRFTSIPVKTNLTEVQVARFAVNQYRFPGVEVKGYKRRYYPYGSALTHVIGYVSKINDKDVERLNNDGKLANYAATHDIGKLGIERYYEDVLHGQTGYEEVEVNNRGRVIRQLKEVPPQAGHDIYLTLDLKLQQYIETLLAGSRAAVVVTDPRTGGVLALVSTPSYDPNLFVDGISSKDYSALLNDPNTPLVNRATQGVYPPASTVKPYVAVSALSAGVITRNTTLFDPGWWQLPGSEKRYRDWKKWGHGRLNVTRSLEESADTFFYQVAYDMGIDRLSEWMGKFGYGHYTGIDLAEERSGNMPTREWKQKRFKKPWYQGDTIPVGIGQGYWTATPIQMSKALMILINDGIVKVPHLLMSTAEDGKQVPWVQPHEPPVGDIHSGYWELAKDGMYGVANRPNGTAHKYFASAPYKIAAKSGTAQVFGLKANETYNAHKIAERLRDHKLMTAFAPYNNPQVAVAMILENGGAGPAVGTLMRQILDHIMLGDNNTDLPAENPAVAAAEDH
In short: as §3

Nc1nc(/C(=N/O)C(=O)N[C@H]2Cc3cccc(C(=O)O)c3OB2O)cs1 [Example 6, (R,Z)-3-(2-(2-aminothiazol-4-yl)-2-(hydroxyimino)acetamido)-2-hydroxy-3,4-dihydro-2H-benzo[e][1,2]oxaborinine-8-carboxylic Acid]
MIC [1]: 16 µg/mL | Effect of expressed β-lactamase on MIC [2]: the same MIC values in strains regardless of the β-lactamase expressed | MIC (S. aureus ATCC 29213): < 64 µg/mL | MIC [3]: 16 µg/mL | MIC [4]: 16 µg/mL | E. coli K12 PBP1a/b Potency (E. coli K12 PBP1a/b): C (C represents a potency of <64 μg/mL) | MIC [5]: 16 µg/mL | E. coli PBP2 Potency (E. coli PBP2): B (B represents a potency between 64 and 1000 μg/mL inclusive)
